Test results published in US20050075282A1, “Materials and methods for inhibiting the development of epilepsy” (priority 2003, published 2005).
pEC50, pIC50, pKi: −log10 of the molar value. “And” between values parts separate entries of the source, which are not always exact repeats. Identical values can stand only once.

How the values were obtained:
[1] = target: purified nuclear histone deacetylase; settings: Calf thymus, reference 2; cited from earlier work
[2] = tested on: HDAC; settings: HDAC inhibitors in rats; cited from earlier work
[3] = tested on: HDAC; settings: cited from earlier work; for pIC50: read-out: IC50 (HDAC inhibition)
[4] = tested on: T1, HDAC (293T cells); settings: 293T cells-HDAC assay; reference 6; cited from earlier work
T1 construct: IC50; other: 293T cells-HDAC assay

[5] = tested on: GABAR; experiment: Whole cell voltage clamp of isolated dentate granule cells (DGCs), response to GABA, after in vivo HDAC inhibitor treatment; set-up: species or system rats
[6] = tested on: rats post pilocarpine-induced status epilepticus; experiment: Chronic epilepsy monitoring (video) after pilocarpine-induced SE; format: in vivo; settings: TSA injected three times, 2 hr, 6 hr and 24 hr post SE; seven weeks monitoring; vs vehicle
Experimental: Trichostatin A (TSA) administration. TSA was administered in the lateral ventricle {−0.8 mm A-P; 1.5 LAT; 3.2 DOWN (Paxinos and Watson 1982)} one hour prior to pilocarpine injection to induce SE. The cannula guide had been previously implanted using stereotaxic surgery two weeks prior to experiment to allow animals properly recovery. TSA (5 μl) was delivered via tubing connected to a pump at a concentration of 5 μg/ml (vehicle, 0.9% saline) at a rate of 1 μl/min for 5 minutes through 29-gauge tubing attached to the cannula. Successful delivery of TSA was verified by histological examination of cannula position and a moving mark inside the tubing. In additional studies (FIGS. 5 and 6), TSA was administered I.P., 2, 6, and 24 hrs post SE.
Pilocarpine-induced status epilepticus. Rats were injected with (−) scopolamine methyl nitrate (1 mg/kg body weight, s.c.) 30 min prior to pilocarpine hydrochloride (405 mg/kg body weight, s.c.). Controls received a sub-convulsive dosage of pilocarpine (40 mg/kg, s.c.). After one hour of SE, diazepam was used to stop SE.
Chronic epilepsy monitoring in TSA treatment. […] This effect lasted for at least 5-7 days, during which time animals had no behavioral seizures (latent period). Animals sequentially developed spontaneous seizures (epilepsy). […] Animals were video monitored for 7 weeks post SE, and the frequency and severity of seizures was quantified.

[7] = tested on: AMPAR; experiment: Whole cell voltage clamp of isolated DGCs, response to kainate + cyclothiazide, after in vivo HDAC inhibitor treatment; set-up: species or system rats
[8] = tested on: NMDAR; experiment: Whole cell voltage clamp of isolated DGCs, response to NMDA, after in vivo HDAC inhibitor treatment; set-up: species or system rats; settings: for increase of DGC NMDAR current densities in control rats: treated control vs control (VPA) or control+vehicle (TSA)
[9] = tested on: HeLa cell nuclear extract HDACs; settings: Enhances histone acetylation in HeLa cell nuclear extract; reference 4; cited from earlier work
[10] = DGCs 1 Wk post SE, TSA in the lateral ventricle
[11] = control rats, TSA in the lateral ventricle
[12] = DGCs 1 Wk post SE, VPA study (FIG. 2B)
[13] = control rats, VPA in drinking water

Structure (SMILES): CCCC(=O)[O-].[Na+] [Sodium Butyrate, Sodium butyrate]
- pIC50 [1]: 3.60
- pEC50 [2]: 3.30 to 3.70
- pIC50 [3]: 2.82
- pIC50 [4]: 3.40 to 3.52

Structure (SMILES): CC(/C=C/C(=O)NO)=C\[C@@H](C)C(=O)c1ccc(N(C)C)cc1 [TSA, Trichostatin A]
- GABAR Current density ([5]; DGCs 1 Wk post SE, 1-hr post SE TSA i.p. injection (FIG. 6)): 235.1±62.3 pA/pF
- GABAR Charge transfer density [5, 10]: 185.9 ± 18.4 (n = 30) (msec) × (nA)/(pF)
- GABAR Desensitization % [5, 10]: 83.1 ± 2.0 (n = 30) %
- GABAR Current density ([5]; DGCs 1 Wk post SE, TSA in the lateral ventricle one hour prior to pilocarpine, GABA 1 mM): 225.6±17.3 pA/pF and 225.6 ± 17.3 (n = 32) pA/pF
- GABAR Charge transfer density [5, 11]: 169.7 ± 14.2 (n = 37) (msec) × (nA)/(pF)
- GABAR Desensitization % [5, 11]: 83.8 ± 1.5 (n = 36) %
- GABAR Current density ([5]; control rats, TSA in the lateral ventricle, GABA 1 mM): 217.9±12.8 pA/pF and 217.9 ± 12.8 (n = 36) pA/pF
- pEC50 [2]: 6.30 to 7.30
- reduction of average spontaneous seizure frequency [6]: more than 70%
- IC50 / working range (HDAC inhibition) ([3]; in vitro): nM affinity range
- increase of AMPAR current densities in control rats ([7]; Control+TSA vs Control+vehicle): 43.8%
- effect on reduced AMPAR function / current densities ([7]; DGCs 1 Wk post SE): totally prevented
- AMPAR Charge transfer density [7, 10]: 703.3 ± 49.9 (n = 33) (msec) × (nA)/(pF)
- AMPAR Charge transfer density [7, 11]: 907.6 ± 57.7 (n = 41) (msec) × (nA)/(pF)
- effect on NMDAR current density ([8]; DGCs 1 Wk post SE, TSA i.p. post SE (FIG. 6)): no significant effect
- NMDAR Charge transfer density [8, 10]: 153.7 ± 16.6 (n = 31) (msec) × (nA)/(pF)
- NMDAR Current density [8, 10]: 117.3±16.0 pA/pF and 117.3 ± 16.0 (n = 31) pA/pF
- NMDAR Desensitization % [8, 10]: 38.5 ± 3.5 (n = 31) %
- NMDAR Desensitization tau [8, 10]: 1222.1 ± 173.8 (n = 28) msec
- NMDAR Charge transfer density [8, 11]: 196.2 ± 14.4 (n = 39) (msec) × (nA)/(pF)
- NMDAR Desensitization % [8, 11]: 27.1 ± 2.2 (n = 39) %
- NMDAR Desensitization tau [8, 11]: 1262.6 ± 197.5 (n = 37) msec
- NMDAR Current density ([8]; control rats, TSA in the lateral ventricle, NMDA 100 μM, Mg-free): 121.0±9.0 pA/pF and 121.0 ± 9.0 (n = 39) pA/pF
- increase of DGC NMDAR current densities in control rats [8]: 83.1%

Structure (SMILES): CCCC(CCC)C(=O)[O-].[Na+] [VPA, 2-propyl-pentanoic acid-sodium salt]
- GABAR Charge transfer density ([5]; DGCs 1 Wk post SE): 217.0 ± 16.4 (n = 73) (msec) × (nA)/(pF)
- GABAR Desensitization % ([5]; DGCs 1 Wk post SE): 76.5 ± 2.1 (n = 73) %
- GABAR current densities [5, 12]: 234.6±12.7 pA/pF
- GABAR Current density ([5]; DGCs 1 Wk post SE, GABA 1 mM): 234.6 ± 12.7 (n = 74) Pa/pF
- GABAR current densities ([5]; control rats + VPA (FIG. 2B)): 243.04±19.25 pA/pF
- GABAR Charge transfer density [5, 13]: 239.8 ± 27.8 (n = 22) (msec) × (nA)/(pF)
- GABAR Current density ([5]; control rats, VPA in drinking water 1.0 g/kg daily, GABA 1 mM): 243.0 ± 19.3 (n = 22) Pa/pF
- GABAR Desensitization % ([5]; control rats, VPA in drinking water, 2-second agonist application): 70.3 ± 4.2 (n = 22) %
- pKi [9]: 3.29
- pEC50 [2]: 3.15 to 3.52
- pIC50 [3]: 3.40
- AMPAR Charge transfer density ([7]; DGCs 1 Wk post SE): 459.8 ± 30.8 (n = 66) (msec) × (nA)/(pF)
- effect on reduced AMPAR function / current densities ([7]; DGCs 1 Wk post SE): partially restore
- AMPAR Charge transfer density [7, 13]: 780.4 ± 53.3 (n = 26) (msec) × (nA)/(pF)
- pIC50 [4]: 3.00 to 3.15
- NMDAR Desensitization % ([8]; DGCs 1 Wk post SE): 43.9 ± 2.7 (n = 61) %
- NMDAR Desensitization tau ([8]; DGCs 1 Wk post SE): 768.6 ± 51.1 (n = 51) Msec
- NMDAR Current density ([8]; DGCs 1 Wk post SE, NMDA 100 μM, Mg-free): 74.0 ± 9.5 (n = 62) Pa/pF
- NMDAR current densities ([8]; control rats + VPA (FIG. 4)): 102.1±17.5 pA/pF
- NMDAR Charge transfer density [8, 13]: 123.2 ± 18.0 (n = 25) (msec) × (nA)/(pF)
- NMDAR Desensitization % [8, 13]: 35.6 ± 4.6 (n = 25) %
- NMDAR Desensitization tau [8, 13]: 669.8 ± 77.3 (n = 21) Msec
- increase of DGC NMDAR current densities in control rats [8]: 49.9%

Structure (SMILES): CCCC(CCC)C(N)=O [VPM, valpromide]
- GABAR Charge transfer density ([5]; DGCs 1 Wk post SE): 249.5 ± 41.5 (n = 26) (msec) × (nA)/(pF)
- GABAR Desensitization % ([5]; DGCs 1 Wk post SE): 77.3 ± 2.7 (n = 27) %
- GABAR current densities [5, 12]: 218.63±33.2 pA/pF
- GABAR Current density ([5]; DGCs 1 Wk post SE, GABA 1 mM): 218.6 ± 33.2 (n = 30) Pa/pF
- AMPAR Charge transfer density ([7]; DGCs 1 Wk post SE): 615.3 ± 42.3 (n = 27) (msec) × (nA)/(pF)
- AMPAR current densities ([7]; DGCs 1 Wk post SE, VPA study (FIG. 3)): 302.5±20.2 pA/pF
- NMDAR Charge transfer density ([8]; DGCs 1 Wk post SE): 180.0 ± 22.4 (n = 26) (msec) × (nA)/(pF)
- NMDAR Desensitization % ([8]; DGCs 1 Wk post SE): 46.7 ± 4.5 (n = 25) %
- NMDAR Desensitization tau ([8]; DGCs 1 Wk post SE): 787.8 ± 131.5 (n = 23) Msec
- NMDAR current densities ([8]; DGCs 1 Wk post SE, VPA study (FIG. 4)): 141.1±17.3 pA/pF
